One data set concerns Apis mellifera. As to conditions: acute, mortality.
In the next data set the test system is Tagia sp. As to conditions: chronic/long-term; duration: 56 days; reproduction.
The next data set relates to Rattus norvegicus. The note with it: for NOAEL: body weight.
The next data set deals with Mus musculus. As to conditions: chronic; duration: 18 months; body weight.
A further data set relates to Daphnia magna. As to conditions: chronic/long-term; duration: 21 days; reproduction.
The test system of a further data set is Folsomia candida. The note with it: chronic/long-term; duration: 28 days; mortality.
In another data set the test system is Oryctolagus sp. The note with it: developmental; development.
A further data set has as its system Oncorhynchus mykiss. As to conditions: acute; duration: 96 hours; mortality.
For a further data set, the system named is Typhlodromus pyri. Kind of data set: LR50; higher = less toxic. As to conditions: not reported; mortality.

Results on 3 molecules are retold here after EPA's ToxValDB 9.5 (doi:10.2903/j.efsa.2019.5821).

Values after ≈ are worked out from the molar mass of the structure shown. Some results are limits rather than exact numbers.

One may read the NOAEL as the highest tested level that showed no adverse finding.

With `CON(C(=O)c1cn(C)nc1C(F)F)C(C)Cc1c(Cl)cc(Cl)cc1Cl` (configuration not stated) [Pydiflumetofen], the LD50 in the data set on Apis mellifera (dermal) is > 100 µg/piece; in the data set with Apis mellifera (oral, unspecified), > 116 µg/piece; in the data set on Rattus norvegicus (acute, oral, mortality), > 5000 mg/kg-day; in the data set on Colinus virginianus (acute, oral, mortality), 3780 mg/kg-day. Besides, the NOEC in the data set with Tagia sp. came out at 15.9 mg/kg; in the data set on Daphnia magna it was 0.042 mg/L; in the data set with Colinus virginianus (reproduction developmental), 90.1 mg/kg-day; with Folsomia candida it was 186 mg/kg. The results for the NOAEL in the data set on Rattus norvegicus (reproduction developmental), in the data set on Mus musculus and with Oryctolagus sp. were 30 mg/kg-day, 9.2 mg/kg-day and 10 mg/kg-day, respectively. The LC50 is > 1260 mg/kg-day in the data set with Colinus virginianus (acute, oral, diet, mortality) and 0.18 µg/mL (≈ 0.422 µM) in the data set with Oncorhynchus mykiss. Also, the LR50 in the data set on Typhlodromus pyri was > 408 g/ha.
`Cn1cc(C(=O)O)c(C(F)F)n1` [3-(Difluoromethyl)-1-methyl-1H-pyrazole-4-carboxylic acid] had an NOAEL in the data set with Oryctolagus sp. of 250 mg/kg-day. In the data set on Oncorhynchus mykiss, the LC50 was > 100 µg/mL.
`Cn1cc(C(N)=O)c(C(F)F)n1` [3-(Difluoromethyl)-1-methyl-1H-pyrazole-4-carboxamide] displayed an NOAEL with Rattus norvegicus (short-term, duration: 28 days) of 37.4 mg/kg-day.
